Test results from patent US20090215906A1 (priority 2005, published 2009).
Read-outs that look alike come from different tables or passages of the source.

Legend:
[1] = tested on: Male Baboons; test: Effects of Clomids on serum testosterone and prolactin in male baboons; assay type: in vivo, Baboon; details: 1.5 mg/kg for 12 days, in words
Excerpt: There were no changes in serum LH or FSH. […] There was also no change in body weight during the 12 day study.

[2] = tested on: hypogonadal men
Procedure: (§1) Half of the men in each of the Androxal™ and placebo arms were randomized into cohorts that underwent in-clinic sessions on days 1 and 14 to determine pharmacokinetic parameters for Androxal™ as well as cyclical changes in testosterone. The placebo and Androxal™ doses were administered in a double blind fashion. The Androgel® cream was administered in an open label fashion. Half of the Androgel® patients underwent in-clinic sessions similar to the other patients in the study. Following the two week drug exposure patients were followed for an additional seven to ten days to determine the status of their testosterone levels.

[3] = tested on: Male Baboons; test: Effects of Clomids on clinical chemistry and hematology parameters in male baboons
Excerpt: (§2) The samples analyzed were sera taken on the day of first treatment before being given test article (day 0), after 12 days of treatment (day 12) and 7 days after the last treatment (end or washout).

[4] = tested on: hypogonadal men; remark: listed apart in the source
Procedure: as §1

[5] = tested on: men; details: cited from earlier work
[6] = tested on: Male Baboons; test: Effects of Clomids on serum cholesterol in male baboons; assay type: in vivo, Baboon; details: 1.5 mg/kg for 12 days
Excerpt: as §2

[7] = tested on: Male Baboons; details: in vivo, 1.5 mg/kg
Excerpt: as §2

[8] = men, after 2 months, Guay et al. 1995

Row | SMILES | effect on total serum testosterone [1] | changes in testosterone from baseline testosterone levels (in words) ([2]; all doses) | serum levels of LH ([2]; during treatment) | counts of eosinophiles ([3]; 1.5 mg/kg for 12 days) | effects on the red blood cell population ([3]; 1.5 mg/kg for 12 days) | lymphocyte count ([3]; 1.5 mg/kg for 12 days) | serum creatinine values ([3]; between day 0 and Day 12) | per cent of granulocytes in the blood ([3]; very strong after the 7-day washout) | reduction in triglycerides ([4]; average, non-dose dependent, after two weeks of therapy) | side effects different than placebo ([4]; two week exposure) | LH, FSH, and testosterone [5, 8] | erectile dysfunction [5, 8] | semen quality or fertility ([5]; men, after 6 months of treatment, WHO study) | free and total testosterone ([5]; men, Tenover et al. 1987) | FSH, LH ([5]; young and old men after treatment, Tenover et al. 1987) | serum cholesterol levels (in words) [6] | effects on hematocrit [7] | effects on the red blood cell population [7]
1 | CCN(CC)CCOc1ccc(/C(=C(\Cl)c2ccccc2)c2ccccc2)cc1 [Enclomid, trans-clomiphene] | significant increases | statistically significant changes | statistically increase | raising | substantive effects | increase | no differences | lowering | 19.1% | no side effects | – | – | – | – | – | – | – | –
2 | CCN(CC)CCOc1ccc(C(=C(Cl)c2ccccc2)c2ccccc2)cc1 [Clomid, clomiphene] | more variable total testosterone levels | – | – | – | – | – | – | – | – | – | increase | no effects | no changes | increases | increased | slight increase | – | –
3 | CCN(CC)CCOc1ccc(/C(=C(/Cl)c2ccccc2)c2ccccc2)cc1 [Zuclomid, cis-clomiphene] | – | – | – | – | – | – | – | – | – | – | – | – | – | – | – | – | substantive effects | substantive effects
